# According to US20140296153A1, “Oligodendrocyte Differentiation” (priority 2011, published 2014):
# System: SVZ cells
# Experiment: BrdU cell proliferation study in SVZ cell cultures
# Format: cell-based, mouse
# Conditions: 48 hours, BrdU last 4 hours
# Protocol: SVZ cell cultures were obtained from early postnatal (P1-3) C57B1/6 donor mice as described previously.
# Brains were removed following decapitation and placed in HBSS solution (Gibco, Carlsbad, Calif., USA). Fragments of SVZ were dissected out of 450 μm thick coronal brain sections, digested in 0.025% trypsin and 0.265 mM EDTA (Gibco), and dissociated by gentle mixing. The cell suspension was diluted in serum-free culture medium (SFM) composed of Dulbecco's modified eagle medium (D-MEM/F12 Gluta-MAX™-I, Gibco) supplemented with 100 U/mL penicillin, 100 μg/mL streptomycin (Gibco), 1% B27 (Gibco), 10 ng/mL epidermal growth factor (EGF; Gibco), and 5 ng/mL basic fibroblast growth factor (FGF-2, Gibco). Single cells were then plated on uncoated Petri dishes at a density of 3000 cells/cm^2. […]
# Fluorescence images were recorded using an LSM 510 Meta confocal microscope or an Axioskop 2 Plus fluorescence microscope (both from Carl Zeiss). […] Percentages of TUNEL or BrdU immunoreactive cells in SVZ cell cultures were calculated from cell counts in five independent microscopic fields in each coverslip with a x40 objective (approximately 200 cells per field). […] For SCCl experiments, the percentage of oligodendrocytic-like responding cells (with a Thromb/Hist ratio above 1.3) was calculated on the basis of one microscopic field per coverslip, containing approximately 100 cells (magnification, ×40). […]
compound,measurement,setting,value
"CC(C)C[C@H](NC(=O)[C@H](Cc1ccccc1)NC(=O)[C@H](CCCCN)NC(=O)[C@H](Cc1ccccc1)NC(=O)[C@H](CC(N)=O)NC(=O)[C@@H](NC(=O)[C@@H]1CCCN1)C(C)C)C(=O)N[C@@H](CO)C(=O)N[C@@H](Cc1cnc[nH]1)C(=O)O [Hp, PVNFKFLSH]",percentage of BrdU-positive cells,1 μM,4.70±0.53%
same,percentage of BrdU-positive cells,Hp 100 nM,4.01±0.81%
